Data from patent EP0173480A2, “The antiviral use of phyllanthostatins” (priority 1984, dated 1986).
“Also recorded” adds a separate entry of the source. Where two headings read alike, the source gives them in different places.

How the values were obtained:
HSV-2 = assay: Cell culture antiviral activity, agar-well zones of cytotoxicity / plaque inhibition; conditions: second figure of the cell, 50 pg of test compound (so in the source)
[1] = test system: herpes simplex virus type 1 (HSV-1, McIntyre); assay: Inhibition of virus replication, virus yield by plaque method; format: cell-based; design: ED90 McIntyre: unit not given here; conditions: for ED90 McIntyre: HSV-1 in Vero cells, drug concentration reducing virus titers by 90%, unit only in b38; for HSV-1 virus yield: Vero cells
Coe = assay: Cell culture antiviral activity, agar-well zones of cytotoxicity / plaque inhibition; conditions: second figure of the cell, 50 pg of test compound (so in the source)
[2] = test system: coxsackie B3 virus (Nancy Strain); assay: Inhibition of virus replication, virus yield in Vero cells; format: cell-based
Vero cells = conditions: monkey
HA-1 = assay: Cell culture antiviral activity, agar-well zones of cytotoxicity / plaque inhibition; conditions: 50 pg of test compound (so in the source); for zone of cytotoxicity: first figure of the cell; for zone of antiviral activity (viral plaque inhibition): second figure of the cell
E.R. = conditions: 50 pg of test compound (so in the source); for zone of cytotoxicity: first figure of the cell; for zone of antiviral activity (viral plaque inhibition): second figure of the cell
[3] = test system: herpes simplex virus type 2 (HSV-2, MS); assay: Inhibition of virus replication, virus yield by plaque method; format: cell-based; conditions: for ED90 MS: HSV-2 in Vero cells, drug concentration reducing virus titers by 90%
[4] = test system: Herpes Simplex virus type 2 (HSV-2, strain 35D); assay: Genital HSV-2 infection of female mice, intravaginal treatment, survival; format: in vivo; conditions: for mice survived (of 14): study of Table 3; for %S (percent survivors) / MDD (mean day of death): N 14; for protection of mice from lethal genital HSV-2 infection, summary in words: intravaginally from one hour after inoculation, 3 times daily
HSV-1 = assay: Cell culture antiviral activity, agar-well zones of cytotoxicity / plaque inhibition; conditions: second figure of the cell, 50 pg of test compound (so in the source)
PR-8 = conditions: 50 pg of test compound (so in the source); for zone of cytotoxicity: first figure of the cell; for zone of antiviral activity (viral plaque inhibition): second figure of the cell
coxsackie A21 = format: cell-based; design: ED90 Col: unit not given beside the values; conditions: for coxsackie A21 virus yield: ML cells
Vacc. = conditions: 50 pg of test compound (so in the source); for zone of cytotoxicity: first figure of the cell; for zone of antiviral activity (viral plaque inhibition): second figure of the cell
[5] = test system: VSV (vesicular stomatitis virus); format: cell-based; design: ED90 VSV: unit not given beside the values; conditions: Vero cells
[6] = test system: Herpes Simplex virus type 2 (HSV-2, strain 35D); assay: Genital HSV-2 infection of female mice, virus titers in vaginal secretions; format: in vivo; conditions: for Mean virus titer in swabs of mice which shed virus / Nv/Nt, swabs with virus/total swabs: 8.0 x 10^4 PFU;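 for Mean virus titer in swabs of mice which shed virus: titer expressed as log PFU per ml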
[7] = 8.0 x 10^3 PFU/0.1 ml, mg/ml cell empty (1 mg/ml in upper section)
[8] = 8.0 x 10^4 PFU/0.1 ml, 1 mg/ml intravaginally
[9] = higher drug concentrations (5 and 50 µg/ml) compared with 0.5
[10] = day 1 after HSV-2 inoc., 0.5 mg/ml
[11] = day 1 after HSV-2 inoc., 1 mg/ml
[12] = day 2 after HSV-2 inoc., 0.5 mg/ml
[13] = day 2 after HSV-2 inoc., 1 mg/ml
[14] = day 3 after HSV-2 inoc., 0.5 mg/ml
[15] = day 3 after HSV-2 inoc., 1 mg/ml
[16] = day 4 after HSV-2 inoc., 0.5 mg/ml
[17] = day 4 after HSV-2 inoc., 1 mg/ml
[18] = day 7 after HSV-2 inoc., 0.5 mg/ml
[19] = day 7 after HSV-2 inoc., 1 mg/ml
[20] = second study, 8.0 x 10^4 PFU in 0.1 ml, 0.5 mg/ml

Molecule: COC(=O)C1CCC2C(C1)OC1(CC(OC(=O)/C=C/c3ccccc3)C(C)CO1)C21CO1 (stereo not shown) [Phyllanthocin]
- zone of antiviral activity (viral plaque inhibition) (HSV-2): 2 (2 - 20-30 mm)
- ED90 McIntyre [1]: 7.1380
- ED90 McIntyre ([1]; listed as phyllanthocin): 7.14
- HSV-1 virus yield ([1]; 5 µg/ml): only modestly inhibitory; also recorded: reductions in yields
- HSV-1 virus yield ([1]; 50 µg/ml): reduced yields of all viruses; also recorded: reduction in titers of all viruses
- zone of antiviral activity (viral plaque inhibition) (Coe): 0/0
- coxsackie B3 virus yield ([2]; 5 µg per ml): inhibitory for coxsackie B3 replication
- times less cytotoxic than phyllanthoside or phyllanthostatin I (Vero cells): 2-5
- ID50 Vero 72 hrs. (Vero cells; vero cells, 72 h): 5.91 mg per ml
- zone of cytotoxicity (HA-1): 0/0
- zone of antiviral activity (viral plaque inhibition) (HA-1): 0/0
- zone of cytotoxicity (E.R.): 0/0
- zone of antiviral activity (viral plaque inhibition) (E.R.): 0/0
- ED90 MS [3]: 7.99 µg per ml
- ED90 MS ([3]; 1440 min): 7.9939 µg per ml
- HSV-2 yields reduced by ([3]; Vero cells, 5 µg per ml): greater than 1 log
- HSV-2 virus yield ([3]; Vero cells, 5 µg/ml): reductions in yields; also recorded: inhibitory
- HSV-2 virus yield ([3]; Vero cells, 50 µg/ml): reduced yields of all viruses; also recorded: reduction in titers of all viruses
- mice survived (of 14) ([4]; 8.0 x 10^3 PFU in 0.1 ml): four
- %S (percent survivors) [4, 7]: 29%
- MDD (mean day of death) [4, 7]: 8.5 days
- mice survived (of 14) ([4]; 8.0 x 10^4 PFU in 0.1 ml): did not protect mice from lethal infection
- %S (percent survivors) [4, 8]: 14%
- MDD (mean day of death) [4, 8]: 8.0 days
- protection of mice from lethal genital HSV-2 infection, summary in words [4]: devoid of antiviral activity
- zone of antiviral activity (viral plaque inhibition) (HSV-1): 3
- zone of cytotoxicity (PR-8): 2 (2 - 20-30 mm)
- zone of antiviral activity (viral plaque inhibition) (PR-8): 0
- coxsackie A21 virus yield (coxsackie A21; 5 µg/ml (below 5 µg per ml)): non-inhibitory; also recorded: did not reduce the yields; also recorded: not affected; also recorded: not for VSV or Coxsackie A-21
- coxsackie A21 virus yield (coxsackie A21; 50 µg/ml): reduced yields of all viruses; also recorded: reduction in titers of all viruses
- ED90 Col (coxsackie A21; […], unit not given, NS - not significant): 61.7506
- zone of cytotoxicity (Vacc.): 0
- zone of antiviral activity (viral plaque inhibition) (Vacc.): 4
- VSV virus yield ([5]; 5 µg/ml (below 5 µg per ml)): non-inhibitory; also recorded: not affected; also recorded: not for VSV or Coxsackie A-21
- VSV virus yield ([5]; 50 µg/ml): reduced yields of all viruses; also recorded: reduction in titers of all viruses
- ED90 VSV ([5]; reduces virus yield by 90%, unit not given, NS - not significant): 8.668

Molecule: Phyllanthostatin 3
- HSV-1 virus yield ([1]; 50 µg/ml): slight reduction in yields
- HSV-2 virus yield ([3]; Vero cells, 50 µg/ml): slight reduction in yields

Molecule: Phyllanthostatin I
- zone of antiviral activity (viral plaque inhibition) (HSV-2): 4/4
- ED90 McIntyre ([1]; listed as Phyllanthostatin): 2.3743
- ED90 McIntyre ([1]; listed as phyllanthostatin I): 2.37
- HSV-1 virus yield [1, 9]: further reductions in all virus yields
- zone of antiviral activity (viral plaque inhibition) (Coe): 0
- coxsackie B3 virus yield ([2]; 5 µg per ml): inhibitory for both viruses
- coxsackie B3 virus yield ([2]; below 5 µg per ml (i.e., 0.5 or 1)): unaffected
- zone of cytotoxicity (HA-1): 4
- zone of antiviral activity (viral plaque inhibition) (HA-1): 0
- mean titers compared with controls ([6]; 0.5 mg/ml, day 4): nearly the same as that in the controls
- mean virus titers less than placebo treated group ([6]; 0.5 mg/ml, days 2 and 3): about 0.7 logs
- mean titer less than the placebo ([6]; 1 mg/ml, day 1): greater than 2 logs
- mean virus titers lower than placebo treated controls ([6]; 1 mg/ml, days 2 through 4): about 0.5 logs
- Mean virus titer in swabs of mice which shed virus [6, 10]: 2.69 log PFU/ml
- Nv/Nt, swabs with virus/total swabs [6, 10]: 9/10
- Mean virus titer in swabs of mice which shed virus [6, 11]: 1.67 log PFU/ml
- Nv/Nt, swabs with virus/total swabs [6, 11]: 4
- Nv/Nt, swabs with virus/total swabs ([6]; day 1 after HSV-2 inoc., 1 mg/ml, listed as Phyllanostatin I): 6/10
- Mean virus titer in swabs of mice which shed virus [6, 12]: 3.76 log PFU/ml
- Nv/Nt, swabs with virus/total swabs [6, 12]: 10/10
- Mean virus titer in swabs of mice which shed virus [6, 13]: 3.83 log PFU/ml
- Nv/Nt, swabs with virus/total swabs [6, 13]: 8/10
- Mean virus titer in swabs of mice which shed virus [6, 14]: 3.71 log PFU/ml
- Nv/Nt, swabs with virus/total swabs [6, 14]: 10/10
- Mean virus titer in swabs of mice which shed virus [6, 15]: 3.93 log PFU/ml
- Nv/Nt, swabs with virus/total swabs [6, 15]: 8/10
- Mean virus titer in swabs of mice which shed virus [6, 16]: 4.13 log PFU/ml
- Nv/Nt, swabs with virus/total swabs [6, 16]: 10/10
- Mean virus titer in swabs of mice which shed virus [6, 17]: 3.63 log PFU/ml
- Nv/Nt, swabs with virus/total swabs [6, 17]: 8/10
- Mean virus titer in swabs of mice which shed virus [6, 18]: (3.98) log PFU/ml
- Nv/Nt, swabs with virus/total swabs [6, 18]: 1/1
- Mean virus titer in swabs of mice which shed virus [6, 19]: 3.47 log PFU/ml
- Nv/Nt, swabs with virus/total swabs [6, 19]: 3/5
- zone of cytotoxicity (E.R.): 2 (2 - 20-30 mm)
- zone of antiviral activity (viral plaque inhibition) (E.R.): 4
- ED90 MS [3]: 1.64 µg per ml
- ED90 MS ([3]; 1440 min): 1.164 µg per ml
- HSV-2 virus yield ([3]; Vero cells, 0.5 µg/ml): most susceptible virus to inhibition
- HSV-2 virus yield ([3]; Vero cells, higher drug concentrations (5 and 50 µg/ml) compared with 0.5): further reductions in all virus yields
- mice survived (of 14) ([4]; 8.0 x 10^3 PFU in 0.1 ml): 10
- %S (percent survivors) [4, 7]: 71%
- MDD (mean day of death) [4, 7]: 11.8 days
- mice survived (of 14) ([4]; 8.0 x 10^4 PFU in 0.1 ml): 4
- %S (percent survivors) [4, 8]: 29%
- MDD (mean day of death) [4, 8]: 7.4 days
- protection of mice from lethal genital HSV-2 infection, summary in words [4]: protected mice from lethal infection when the virus inoculum was reduced
- MDD [4, 20]: the same as the saline and DMSO saline treated group
- mice survived [4, 20]: all of the animals succumed to infection
- death of mice ([4]; second study, 8.0 x 10^4 PFU in 0.1 ml, 1 mg/ml): 80%
- zone of antiviral activity (viral plaque inhibition) (HSV-1): 4/4
- zone of cytotoxicity (PR-8): 2/2 (2 - 20-30 mm)
- zone of antiviral activity (viral plaque inhibition) (PR-8): 2/2 (2 - 20-30 mm)
- coxsackie A21 virus yield (coxsackie A21; 5 µg/ml (below 5 µg per ml)): inhibitory for both viruses
- coxsackie A21 virus yield (coxsackie A21; below 5 µg per ml (i.e., 0.5 or 1), study of b36): reduced titers of coxsackie A21
- coxsackie A21 virus yield (coxsackie A21; [9]): further reductions in all virus yields
- zone of cytotoxicity (Vacc.): 4/4
- zone of antiviral activity (viral plaque inhibition) (Vacc.): 4/4
- VSV virus yield [5, 9]: further reductions in all virus yields
